Legend:
[1] = test system: transplanted tumor of human large cell lung cancer H460 cells; test: H460 transplanted tumor in nude mice
Method: (§1) Then cell concentration was adjusted to 1×10^7/ml with matrigel, then each nude mouse was inoculated subcutaneously with 0.2 ml of cells at its right armpit and recorded as the first day of inoculation. When the tumor grows to be greater than or equal to 100 mm^3, the mice were randomly divided into 11 groups with 6 mice in each group: isovaleryl spiramycin I groups with doses of 25, 50 and 100 mg/kg, isovaleryl spiramycin II groups with doses of 25, 50 and 100 mg/kg, and isovaleryl spiramycin III groups with doses of 25, 50 and 100 mg/kg. Each group was continuously administered intragastrically for 30 days with a dose of 20 ml/kg. The mice were sacrificed the next day after drug withdrawal and the indicators were tested. The long diameter and short diameter of the tumor, and the body weight of each mouse were recorded every 3 days from drug administration to nude mouse sacrifice.
(§2) The body weight of the nude mice and the long diameter (a) and short diameter (b) of the transplanted tumor were measured every 3 days, and the tumor volume (v), relative tumor volume (RTV) and relative tumor proliferation rate (T/C) are calculated respectively according to the following formulas, wherein V=a×b^2/2; RTV=V/V0 (V0 is the tumor volume before administration, V is the tumor volume before sacrifice), and T/C (%)=treatment group RTV/model control group RTV×100%.
(§3) Each mouse was weighed and sacrificed. After the tumor was completely stripped off from the body of the mouse, the non-tumor tissues such as blood stains and fat were removed to weigh the tumor and calculate the tumor growth inhibition rate. The average tumor weight of each group of mice is used as an indicator of efficacy. Tumor growth inhibition rate (%)=(1−the average tumor weight of the treatment group/the average tumor weight of the model group)×100%.

[2] = test system: transplanted tumor of human esophageal cancer cell TE-1; test: TE-1 transplanted tumor in nude mice
Method: as §1, with “group: a model group, a cyclophosphamide group,” for “group:”
as §2, §3

[3] = test system: transplanted tumor of human pancreatic cancer cell PANC-1; test: PANC-1 transplanted tumor in nude mice; conditions: for Tumor Volume (mm3) (d 1): d1
Method: as §1, with “group: a model group, a cyclophosphamide group,” for “group:”
as §2, §3

[4] = test system: transplanted tumor of human renal clear cell adenocarcinoma cell 786-O; test: 786-O transplanted tumor in nude mice; conditions: for Tumor Volume (mm3) (d 1): d1
Method: as §1, with “786-O cells in a logarithmic growth phase were taken and subjected to a trypan blue exclusion experiment showing that the cell viability was more than 95%, then the cells were subjected to trypsinization, centrifugation, and supernatant removal. Then” for “Then”, “group: a model group, a cyclophosphamide group,” for “group:”
as §2, §3

[5] = H460, 25 mg/kg (low dose) i.g. 30 days
[6] = H460, 50 mg/kg (medium dose) i.g. 30 days
[7] = H460, 100 mg/kg (high dose) i.g. 30 days
[8] = TE-1, 12.5 mg/kg (low dose) i.g. 30 days
[9] = TE-1, 25 mg/kg (medium dose) i.g. 30 days
[10] = TE-1, 50 mg/kg (high dose) i.g. 30 days
[11] = PANC-1, 12.5 mg/kg (low dose) i.g. 30 days
[12] = PANC-1, 25 mg/kg (medium dose) i.g. 30 days
[13] = PANC-1, 50 mg/kg (high dose) i.g. 30 days
[14] = 786-O, high dose (100 mg/kg in method) i.g. 30 days
[15] = 786-O, low dose (25 mg/kg in method) i.g. 30 days
[16] = 786-O, medium dose (50 mg/kg in method) i.g. 30 days

mouse weight compared with the model group ([1]; mouse, in vivo): no significant changes
mouse weight compared with the model group ([2]; mouse, in vivo): no significant changes
mouse weight compared with the model group ([3]; mouse, in vivo): no significant changes
mouse weight compared with the model group ([4]; mouse, in vivo): no significant changes
Compound: CO[C@@H]1[C@@H](O[C@@H]2O[C@H](C)[C@@H](O[C@H]3C[C@@](C)(O)[C@@H](OC(=O)CC(C)C)[C@H](C)O3)[C@H](N(C)C)[C@H]2O)[C@@H](CC=O)C[C@@H](C)[C@@H](O[C@H]2CC[C@H](N(C)C)[C@@H](C)O2)/C=C/C=C/C[C@@H](C)OC(=O)C[C@H]1O [Isovaleryl spiramycin I, isovaleryl spiramycin I]
Inhibition Rate (tumor growth inhibition rate) [1, 5]: 20.70%
Relative Tumor Proliferation Rate (T/C) [1, 5]: 56.56%
Relative Tumor Volume (RTV) [1, 5]: 5.94 ± 2.02
Tumor Volume (d 1) [1, 5]: 148.20 ± 15.93 mm3
Tumor Volume (d 30) [1, 5]: 889.44 ± 343.94 mm3
Tumor Weight [1, 5]: 1.37 ± 0.13 g
Inhibition Rate (tumor growth inhibition rate) [1, 6]: 46.33%
Relative Tumor Proliferation Rate (T/C) [1, 6]: 49.00%
Relative Tumor Volume (RTV) [1, 6]: 5.15 ± 2.25
Tumor Volume (d 1) [1, 6]: 148.51 ± 17.68 mm3
Tumor Volume (d 30) [1, 6]: 753.94 ± 306.82 mm3
Tumor Weight [1, 6]: 0.93 ± 0.18 g
Inhibition Rate (tumor growth inhibition rate) [1, 7]: 70.11%
Relative Tumor Proliferation Rate (T/C) [1, 7]: 31.96%
Relative Tumor Volume (RTV) [1, 7]: 3.36 ± 0.85
Tumor Volume (d 1) [1, 7]: 145.08 ± 19.59 mm3
Tumor Volume (d 30) [1, 7]: 477.54 ± 89.21 mm3
Tumor Weight [1, 7]: 0.52 ± 0.07 g
tumor volume and relative tumor volume compared with the model group ([1]; H460, low, medium and high doses, P<0.05): significantly lower
Inhibition Rate (tumor growth inhibition rate) [2, 8]: 30.92%
Relative Tumor Proliferation Rate (T/C) [2, 8]: 60.55%
Relative Tumor Volume (RTV) [2, 8]: 5.48 ± 3.80
Tumor Volume (d 1) [2, 8]: 408.51 ± 150.80 mm3
Tumor Volume (d 30) [2, 8]: 2690.27 ± 374.79 mm3
Tumor Weight [2, 8]: 1.08 ± 0.24 g
Inhibition Rate (tumor growth inhibition rate) [2, 9]: 51.01%
Relative Tumor Proliferation Rate (T/C) [2, 9]: 40.70%
Relative Tumor Volume (RTV) [2, 9]: 3.94 ± 2.71
Tumor Volume (d 1) [2, 9]: 258.44 ± 104.69 mm3
Tumor Volume (d 30) [2, 9]: 1143.85 ± 402.36 mm3
Tumor Weight [2, 9]: 0.77 ± 0.43 g
Inhibition Rate (tumor growth inhibition rate) [2, 10]: 69.71%
Relative Tumor Proliferation Rate (T/C) [2, 10]: 20.61%
Relative Tumor Volume (RTV) [2, 10]: 3.65 ± 1.71
Tumor Volume (d 1) [2, 10]: 279.56 ± 156.70 mm3
Tumor Volume (d 30) [2, 10]: 626.64 ± 431.35 mm3
Tumor Weight [2, 10]: 0.48 ± 0.36 g
tumor volume and relative tumor volume compared with the model group ([2]; TE-1, low, medium and high doses, P<0.05): significantly lower
Inhibition Rate (tumor growth inhibition rate) [3, 11]: 31.10%
Tumor Weight [3, 11]: 1.87 ± 0.25 g
Inhibition Rate (tumor growth inhibition rate) [3, 12]: 51.72%
Tumor Weight [3, 12]: 1.31 ± 0.50 g
Inhibition Rate (tumor growth inhibition rate) [3, 13]: 70.12%
Tumor Weight [3, 13]: 0.81 ± 0.08 g
Relative Tumor Proliferation Rate (T/C) ([3]; PANC-1, high dose i.g. 30 days): 30.80%
Relative Tumor Proliferation Rate (T/C) ([3]; PANC-1, low dose i.g. 30 days): 71.92%
tumor volume and relative tumor volume compared with the model group ([3]; PANC-1, low, medium and high doses, P<0.05): significantly lower
Relative Tumor Proliferation Rate (T/C) ([3]; PANC-1, medium dose i.g. 30 days): 49.05%
Relative Tumor Proliferation Rate (T/C) ([3]; PANC-1 nude mice, 12.5 mg/kg): 71.92%
Relative Tumor Volume (RTV) ([3]; PANC-1 nude mice, 12.5 mg/kg): 12.59 ± 7.49
Tumor Volume (mm3) (d 1) ([3]; PANC-1 nude mice, 12.5 mg/kg): 139.97 ± 26.58 mm3
Tumor Volume (mm3) (d30) ([3]; PANC-1 nude mice, 12.5 mg/kg): 1634.85 ± 789.61 mm3
Relative Tumor Proliferation Rate (T/C) ([3]; PANC-1 nude mice, 25 mg/kg): 49.05%
Relative Tumor Volume (RTV) ([3]; PANC-1 nude mice, 25 mg/kg): 8.58 ± 4.41
Tumor Volume (mm3) (d 1) ([3]; PANC-1 nude mice, 25 mg/kg): 146.57 ± 32.97 mm3
Tumor Volume (mm3) (d30) ([3]; PANC-1 nude mice, 25 mg/kg): 1162.80 ± 394.71 mm3
Relative Tumor Proliferation Rate (T/C) ([3]; PANC-1 nude mice, 50 mg/kg): 30.80%
Relative Tumor Volume (RTV) ([3]; PANC-1 nude mice, 50 mg/kg): 5.39 ± 0.97
Tumor Volume (mm3) (d 1) ([3]; PANC-1 nude mice, 50 mg/kg): 124.02 ± 15.14 mm3
Tumor Volume (mm3) (d30) ([3]; PANC-1 nude mice, 50 mg/kg): 656.95 ± 49.58 mm3
Inhibition Rate (%) ([4]; 786-O nude mice, 25 mg/kg): 34.70%
Relative Tumor Proliferation Rate (T/C) ([4]; 786-O nude mice, 25 mg/kg): 37.88%
Relative Tumor Volume (RTV) ([4]; 786-O nude mice, 25 mg/kg): 6.99 ± 0.83
Tumor Weight ([4]; 786-O nude mice, 25 mg/kg): 1.40 ± 0.40 g
Tumor Volume (mm3) (d 1) ([4]; 786-O nude mice, 25 mg/kg): 96.85 ± 9.98 mm3
Tumor Volume (mm3) (d30) ([4]; 786-O nude mice, 25 mg/kg): 677.21 ± 58.76 mm3
Inhibition Rate (%) ([4]; 786-O nude mice, 50 mg/kg): 39.22%
Relative Tumor Proliferation Rate (T/C) ([4]; 786-O nude mice, 50 mg/kg): 37.19%
Relative Tumor Volume (RTV) ([4]; 786-O nude mice, 50 mg/kg): 6.86 ± 1.01
Tumor Weight ([4]; 786-O nude mice, 50 mg/kg): 1.31 ± 0.35 g
Tumor Volume (mm3) (d 1) ([4]; 786-O nude mice, 50 mg/kg): 96.82 ± 8.52 mm3
Tumor Volume (mm3) (d30) ([4]; 786-O nude mice, 50 mg/kg): 664.44 ± 73.49 mm3
Inhibition Rate (%) ([4]; 786-O nude mice, 100 mg/kg): 64.36%
Relative Tumor Proliferation Rate (T/C) ([4]; 786-O nude mice, 100 mg/kg): 36.87%
Relative Tumor Volume (RTV) ([4]; 786-O nude mice, 100 mg/kg): 6.81 ± 0.31
Tumor Weight ([4]; 786-O nude mice, 100 mg/kg): 0.76 ± 0.13 g
Tumor Volume (mm3) (d 1) ([4]; 786-O nude mice, 100 mg/kg): 103.25 ± 9.71 mm3
Tumor Volume (mm3) (d30) ([4]; 786-O nude mice, 100 mg/kg): 702.74 ± 37.66 mm3
Relative Tumor Proliferation Rate (T/C) [4, 14]: 36.89%
tumor growth inhibition rate [4, 14]: 64.36%
Relative Tumor Proliferation Rate (T/C) [4, 15]: 37.88%
tumor growth inhibition rate [4, 15]: 34.70%
tumor volume and relative tumor volume compared with the model group ([4]; 786-O, low, medium and high doses, P<0.05): significantly lower
Relative Tumor Proliferation Rate (T/C) [4, 16]: 37.19%
tumor growth inhibition rate [4, 16]: 39.22%
Body Weight (g) (d1) ([4]; mouse, in vivo, 25 mg/kg): 21.87 ± 0.89 g
Body Weight (g) (d30) ([4]; mouse, in vivo, 25 mg/kg): 22.95 ± 0.88 g
Body Weight (g) (d1) ([4]; mouse, in vivo, 50 mg/kg): 22.00 ± 0.94 g
Body Weight (g) (d30) ([4]; mouse, in vivo, 50 mg/kg): 22.82 ± 0.64 g
Body Weight (g) (d1) ([4]; mouse, in vivo, 100 mg/kg): 21.88 ± 0.54 g
Body Weight (g) (d30) ([4]; mouse, in vivo, 100 mg/kg): 23.00 ± 0.67 g
